Experimental data reported in patent publication US20220112204A1, “SUBSTITUTED DIHYDROPYRANOPYRIMIDINE COMPOUNDS AS KRAS INHIBITORS” (ACCUTAR BIOTECHNOLOGY INC., priority 2020, published 2022).
Like-named read-outs stand apart in the source and are kept apart here.

Assays:
[1] = tested on: SW837 cells; assay: 3D cell growth assay (CellTiter-Glo), SW837; type: cell-based; conditions: Homo sapiens, 144 h, SW837, KRAS G12C, 6 days, read-out: 3D growth inhibition GI50
Procedure: (§1) MIA PaCa-2 (ATCC), NCI-H358 (ATCC), NCI-H23 (ATCC), SW837 and A549 (ATCC) cells were plated in round bottom 96-well spheroid microplates (Corning, 4520) at 3000 cells/well in 90 ul of RPMI growth medium containing 10% FBS and 1% Penicillin Streptomycin. Cells were incubated at 37° C. overnight. The following day, the test compound was administered to the cells by using 10× compound stock solution prepared in growth medium at various concentrations. After administration of the compound, cells were then incubated at 37° C. for 6 days. Before CellTiter-Glo assay, the plates were equilibrated at room temperature for approximately 10 minutes. 100 ul of CellTiter-Glo® Reagent (Promega, G7573) was added to each well. The plates were then incubated at room temperature for 10 minutes and luminescence was recorded by EnSpire plate reader (PerkinElmer). Table 6 illustrates growth inhibition (G150) by exemplary compounds 1-10 of the present disclosure in a MIA PaCa-2 cell line 6 days after administration in 3D cell culture. A: >0.1 nM and <1 nM; B: >=1 nM and <10 nM; C: >=10 nM and <100 nM; D: >100 nM.

[2] = tested on: phospho-ERK1/2 (Thr202/Tyr204) in A549 cells; assay: pERK and ERK Western blot analysis, A549; type: cell-based; conditions: Homo sapiens; A549, KRAS G12S, 4 hours
Procedure: (§2) MIA PaCa-2 (ATCC), NCI-H358 (ATCC), NCI-H23 (ATCC), SW837 and A549 (ATCC) cells were plated in 24-well plates at 2×10^5cells/well in RPMI growth medium containing 10% FBS and 1× Penicillin Streptomycin. They were then incubated at 37° C. overnight. The following day, the test compound was administered to the cells by using 1000× compound stock solution prepared in DMSO at various concentrations. After administration of the compound, the cells were then incubated at 37° C. for 4 hours. Upon completion, the cells were washed with PBS and protein was collected in Laemmli sample buffer (1×; VWR International). Proteins in cell lysate were separated by SDS-PAGE and transferred to Odyssey nitrocellulose membranes (Licor) with iblot® dry blotting transfer system (ThermoFisher). Nonspecific binding was blocked by incubating membranes with Intercept Blocking Buffer (Licor) for 1 hour at room temperature with gentle shaking. The membranes were then incubated overnight at 4° C. with primary antibodies rabbit anti-phospho p44/42 MAPK (Erk1/2) (1:2,000, Cell Signaling, 4370) and mouse anti-p44/42 MAPK (Erk1/2) (1:1,000, Cell Signaling, 4696) diluted in Intercept Blocking Buffer containing 0.1% Tween 20. […] The bands were quantified using Image Studio™ Software (Licor).

[3] = tested on: A549 cells; assay: 3D cell growth assay (CellTiter-Glo), A549; type: cell-based; conditions: Homo sapiens, 144 h, A549, KRAS G12S, 6 days, read-out: 3D growth inhibition GI50
Procedure: as §1

[4] = tested on: phospho-ERK1/2 (Thr202/Tyr204) in MIA PaCa-2 cell line; assay: pERK and ERK Western blot analysis, MIA PaCa-2; type: cell-based; conditions: Homo sapiens
Procedure: MIA PaCa-2 (ATCC), NCI-H358 (ATCC), NCI-H23 (ATCC), SW837 and A549 (ATCC) cells were plated in 24-well plates at 2×10^5cells/well in RPMI growth medium containing 10% FBS and 1× Penicillin Streptomycin. They were then incubated at 37° C. overnight. The following day, the test compound was administered to the cells by using 1000× compound stock solution prepared in DMSO at various concentrations. After administration of the compound, the cells were then incubated at 37° C. for 4 hours. Upon completion, the cells were washed with PBS and protein was collected in Laemmli sample buffer (1×; VWR International). Proteins in cell lysate were separated by SDS-PAGE and transferred to Odyssey nitrocellulose membranes (Licor) with iblot® dry blotting transfer system (ThermoFisher). Nonspecific binding was blocked by incubating membranes with Intercept Blocking Buffer (Licor) for 1 hour at room temperature with gentle shaking. The membranes were then incubated overnight at 4° C. with primary antibodies rabbit anti-phospho p44/42 MAPK (Erk1/2) (1:2,000, Cell Signaling, 4370) and mouse anti-p44/42 MAPK (Erk1/2) (1:1,000, Cell Signaling, 4696) diluted in Intercept Blocking Buffer containing 0.1% Tween 20. After washing 3 times with TBS-T, the membranes were incubated with IRDye® 800CW goat anti-rabbit IgG (1:20,000, Licor) or IRDye® 680CW goat anti-mouse IgG (1:20,000, Licor) for 1 hour. After TBS-T washes, membranes were rinsed in TBS and scanned on Odyssey® CLx Imaging System (Licor). The bands were quantified using Image Studio™ Software (Licor).

[5] = tested on: phospho-ERK1/2 (Thr202/Tyr204) in NCI-H23 cells; assay: pERK and ERK Western blot analysis, NCI-H23; type: cell-based; conditions: Homo sapiens; NCI-H23, KRAS G12C, 4 hours
Procedure: as §2

[6] = tested on: phospho-ERK1/2 (Thr202/Tyr204) in SW837 cells; assay: pERK and ERK Western blot analysis, SW837; type: cell-based; conditions: Homo sapiens; SW837, KRAS G12C, 4 hours
Procedure: as §2

[7] = target: T1, KRAS-G12C mutant (Homo sapiens, UniProt P01116, G12C); assay: Gel shift assay (SDS-PAGE) for covalent modification of KRAS G12C; type: binding; conditions: 0.5 μM compound, 1 μM GDP-bound KRAS G12C, 25° C., 5 minutes, shift indicative of covalent cysteine conjugation
Procedure: 0.5 μM compounds were incubated with 1 μM GDP-bound untagged KRAS (G12C or wild type) proteins at 25° C. for 5 minutes in 40 μl reaction buffer (50 mM Tris, pH 7.5, 100 mM NaCl, 1 mM MgCl2, 1 mM DTT). The reactions were quenched with 10 μI SDS-PAGE sample loading buffer (250 mM Tris-HCl, pH 6.8, 10% SDS, 0.5% bromophenol blue, 50% glycerol and 50 mM DTT) and then analyzed via SDS-PAGE using 4%-20% gradient polyacrylamide gel followed by Coomassie blue stain.
FIG. 1 illustrates mobility change of KRAS-G12C mutant or wild type proteins on SDS-PAGE after 5 minutes of coincubation at 25° C. with exemplary compounds of the present disclosure, indicative of covalent cysteine conjugation.
Table 3 summarizes molecular weight shift of KRAS-G12C mutant on SDS-PAGE after 5 mins of coincubation at 25° C. with exemplary compounds of the present disclosure, indicative of covalent cysteine conjugation.

[8] = tested on: MIA PaCa-2 cell line; assay: 3D cell growth assay (CellTiter-Glo), MIA PaCa-2; type: cell-based; conditions: Homo sapiens, MIA PaCa-2, 144 h, 6 days, read-out: 3D growth inhibition GI50
Procedure: as §1

[9] = target: T1, KRAS-G12C mutant; assay: TR-FRET assay of SOS1-assisted KRAS GDP/GTP exchange; type: biochemical
Procedure: GDP form of 6*His tagged KRAS-G12C was diluted to 40 nM and incubated with 8 nM LanthaScreen™ Elite Terbium-anti-HIS Antibody (Thermo, catalog number PV5863) in reaction buffer containing 20 mM Tris, pH 7.5, 100 mM NaCl, 1 mM DTT, 0.1% Tween20, 0.05% BSA, 2% DMSO, 1 mM MgCl2. After 1 hour-incubation at 4° C., proteins were placed in 384 well plate (PerkinElmer, PROXIPLATE-384 PLUS). Then compounds with different concentrations were added to the proteins. BODIPY labeled GTP (Thermo, catalog number G12411) and SOS-1 (or reaction buffer as control) were then added to reactions at 200 nM and 1 μM to trigger the exchange of GDP to BODIPY-GTP. TR-FRET emission signals were determined at 520 nm and 620 nm on a Envision® Multilabel Plate Reader (PerkinElmer) using a 337 nm laser as light source. All data were analyzed and plotted using Graph Pad Prism software (version 8.0.1). Raw TR-FRET data were converted to percentage of inhibition (relative to DMSO) using the following equations: […]
b) For a given test compound concentration X:
Signal (X)=Emission ratio (SOS-1 & GTP)—Emission ratio (buffer & GTP)
c) Percentage of inhibition at concentration X=[1−Signal(X)/Signal (DMSO)]*100%
The […] values were determined by nonlinear regression of plots of [inhibitor] vs. percentage of inhibition with variable slope. Table 4 summarizes inhibition of SOS1-assisted GDP/GTP exchanging activity of KRAS-G12C mutant with exemplary compounds of the present disclosure.

[10] = tested on: NCI-H23 cells; assay: 3D cell growth assay (CellTiter-Glo), NCI-H23; type: cell-based; conditions: Homo sapiens, 144 h, NCI-H23, KRAS G12C, 6 days, read-out: 3D growth inhibition GI50
Procedure: as §1

[11] = tested on: NCI-H358 cells; assay: 3D cell growth assay (CellTiter-Glo), NCI-H358; type: cell-based; conditions: Homo sapiens, 144 h, NCI-H358, KRAS G12C, 6 days, read-out: 3D growth inhibition GI50
Procedure: as §1

[12] = tested on: phospho-ERK1/2 (Thr202/Tyr204) in NCI-H358 cells; assay: pERK and ERK Western blot analysis, NCI-H358; type: cell-based; conditions: Homo sapiens; NCI-H358, KRAS G12C, 4 hours
Procedure: as §2

[13] = MIA PaCa-2, MiaPaCa2, KRAS G12C, 4 hours, read-out: pERK IC50
[14] = MIA PaCa-2 cell line, 4 hours after incubation, read-out: 2D pERK IC50
[15] = MIA PaCa-2 cell line, 3D cell culture

Compound	GI50 [1] [nM]	IC50 [2] [nM]	GI50 [3] [nM]	IC50 [4, 13] [nM]	IC50 [4, 14] [nM]	IC50 [5] [nM]	IC50 [6] [nM]	KRAS-G12C molecular weight shift [7]	GI50 [8, 15] [nM]	GI50 ([8]; MiaPaCa2, KRAS G12C, 3D) [nM]	IC50 [9] [nM]	GI50 [10] [nM]	GI50 [11] [nM]	IC50 [12] [nM]
C=C(F)C(=O)N1CCN(c2nc(OC[C@@]34CCCN3C[C@H](F)C4)nc3c2CO[C@H](c2cccc4cccc(Cl)c24)C3)C[C@@H]1CC#N [Compound 64, 2-((S)-4-((S)-7-(8-chloronaphthalen-1-yl)-2-(((2R,7aS)-2-fluorotetrahydro-1H-pyrrolizin-7a(5H)-yl)methoxy)-7,8-dihydro-5H-pyrano[4,3-d]pyrimidin-4-yl)-1-(2-fluoroacryloyl)piperazin-2-yl)acetonitrile]	4.1	> 30000	> 300	2.4	1 to 10	1.7	1.2	Yes	0.1 to 1	0.3	20	2.1	0.2	2.5
C=C(F)C(=O)N1CCN(c2nc(OCC34CCCN3CCC4)nc3c2CO[C@H](c2cccc4cccc(Cl)c24)C3)C[C@@H]1CC#N (single isomer, unassigned) [Compound 55]	8.6	> 30000	> 300	10.1	1 to 10	6.4	5.9	Yes	0.1 to 1	0.8	22	8.4	0.7	12
C=C(F)C(=O)N1CCN(c2nc(OCC34CCCN3CCC4)nc3c2C(C)OC(c2cccc4cccc(Cl)c24)C3)C[C@@H]1CC#N (stereo partly drawn) [Compound 59, 2-((2S)-4-(7-(8-chloronaphthalen-1-yl)-5-methyl-2-((tetrahydro-1H-pyrrolizin-7a(5H)-yl)methoxy)-7,8-dihydro-5H-pyrano[4,3-d]pyrimidin-4-yl)-1-(2-fluoroacryloyl)piperazin-2-yl)acetonitrile]	–	–	–	–	10 to 100	–	–	Yes	1 to 10	–	60	–	–	–
C=C(F)C(=O)N1CCN(c2nc(OCC34CCCN3CCC4)nc3c2COC(c2cccc4cccc(Cl)c24)C3)C[C@@H]1CC#N (stereo partly drawn) [Compound 53, 2-((2S)-4-(7-(8-chloronaphthalen-1-yl)-2-((tetrahydro-1H-pyrrolizin-7a(5H)-yl)methoxy)-7,8-dihydro-5H-pyrano[4,3-d]pyrimidin-4-yl)-1-(2-fluoroacryloyl)piperazin-2-yl)acetonitrile]	–	–	–	–	1 to 10	–	–	Yes	1 to 10	–	45	–	–	–
C=C(F)C(=O)N1CCN(c2nc(OCC34CCCN3CCC4)nc3c2[C@H](C)O[C@H](c2cccc4c2CCCC4)C3)C[C@@H]1CC#N [Compound 61, 2-((S)-1-(2-fluoroacryloyl)-4-((5S,7S)-5-methyl-2-((tetrahydro-1H-pyrrolizin-7a(5H)-yl)methoxy)-7-(5,6,7,8-tetrahydronaphthalen-1-yl)-7,8-dihydro-5H-pyrano[4,3-d]pyrimidin-4-yl)piperazin-2-yl)acetonitrile]	–	–	–	–	10 to 100	–	–	Yes	10 to 100	–	78	–	–	–
C=C(F)C(=O)N1CCN(c2nc(OCC3(CN4CCCC4)CC3)nc3c2CO[C@@H](c2cccc4cccc(Cl)c24)C3)C[C@@H]1CC#N (single isomer, unassigned) [Compound 72]	–	–	–	–	> 100	–	–	No	> 100	–	11600	–	–	–
C=C(F)C(=O)N1CCN(c2nc(OCC34CCCN3CCC4)nc3c2CO[C@H](c2cccc4c2CCCC4)C3)C[C@@H]1CC#N [Compound 69, 2-((S)-1-(2-fluoroacryloyl)-4-((S)-2-((tetrahydro-1H-pyrrolizin-7a(5H)-yl)methoxy)-7-(5,6,7,8-tetrahydronaphthalen-1-yl)-7,8-dihydro-5H-pyrano[4,3-d]pyrimidin-4-yl)piperazin-2-yl)acetonitrile]	–	–	–	–	10 to 100	–	–	Yes	1 to 10	–	20	–	–	–
C=C(F)C(=O)N1CCN(c2nc(OCC34CCCN3CCC4)nc3c2CO[C@H](c2cccc4cccc(C)c24)C3)C[C@@H]1CC#N (single isomer, unassigned) [Compound 58]	–	–	–	–	10 to 100	–	–	Yes	1 to 10	–	19	–	–	–
